These results are taken from US20200308165A1, “Compounds as Ras Inhibitors and Use Thereof” (D.E. Shaw Research, LLC, priority 2017, published 2020).

In assay [1] the target is T1, Ras protein (Homo sapiens, UniProt P01116). Kind of assay: GDPx_Icagen_IC50: SOS1-mediated guanine nucleotide exchange rate of Ras (mant-GDP). The note with it: SOS1-initiated exchange. The format is biochemical.
Excerpt: (§1) In some embodiments, the IC50 assay measures the reduction effect of a given compound on the guanine nucleotide-echange rate of Ras protein in the presence of guanine nucleotide exchange protein SOS1, which is a Ras activator. In the assay GDP-loaded Ras was first prepared in a buffer containing the compound at certain concentration and fluorescent guanine nucleotide (mant-GDP (used in Icagene assay) or mant-GTP (used in other IC50 assays). The guanine nucleotide exchange was initiated by the addition of the SOS1 and its rate was reflected in the rate of fluorescence change as a function of time, which was monitored by a reader. The experiment was repeated at different compound concentrations and the IC50 of the compound was defined as the compound concentration at which half of its maximal reduction effect on the guanine nucleotide exchange rate is achieved. In other embodiments, other Ras activator proteins may be used. Non-limiting examples of other Ras activator proteins include RasGRP (Ras guanyl-releasing protein).
Example 17. Evaluation of Biological Activities: GDPx_Icagen_ICso
as §1, with “The IC50” for “In some embodiments, the IC50”, “guanine nucleotide-exchange” for “guanine nucleotide-echange”, “Ras is” for “Ras was”, “nucleotide (mant-GDP).” for “nucleotide (mant-GDP (used in Icagene assay) or mant-GTP (used in other IC50 assays).”, “achieved.” for “achieved. In other embodiments, other Ras activator proteins may be used. Non-limiting examples of other Ras activator proteins include RasGRP (Ras guanyl-releasing protein).”

The target in a further assay is T2, KRAS4B (wild type) (Homo sapiens, UniProt P01116).
T2 construct: purchased Cytoskeleton CS-RS03 (K-Ras4B); CS-SOS1-A (SOS1)
T2 sequence (P01116 1-188 isoform P01116-2): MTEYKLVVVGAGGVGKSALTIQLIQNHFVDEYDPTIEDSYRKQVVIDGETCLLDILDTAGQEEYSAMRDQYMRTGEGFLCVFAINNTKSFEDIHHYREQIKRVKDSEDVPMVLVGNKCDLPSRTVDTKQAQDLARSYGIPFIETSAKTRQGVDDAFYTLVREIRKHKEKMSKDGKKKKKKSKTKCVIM
Kind of assay: K-Ras Nucleotide Exchange Assay-384 (SOS Exchange Assay by Cytoskeleton, GTPx_Cyt_IC50). The format is biochemical. The note with it: 1 μM KRAS4B, 0.05 μM SOS1, 1.5 μM mant-GDP. The procedure:
Example 16. Evaluation of Biological Activities: K-Ras Nucleotide Exchange Assay-384 (SOS Exchange Assay by Cytoskeleton (GTPx_Cyt_IC50))
This assay is used to evaluate inhibitors of K-ras, by monitoring the inhibition of nucleotide exchange over time, in the presence of the protein SOS.
384-well black, untreated plates (Corning 3820 with NBS or 3821 untreated) were used. K-Ras4B Protein was used, which is wild-type (Cytoskeleton #CS-RS03) with a concnetration of 5 mg/ml, or 200 μM. Human SOS1 Protein, Exchange Domain 564-1049 (Cytoskeleton # CS-SOS1-A) was used in a concentration of 3.03 mg/ml or 50 μM. Mant-GDP triethylammonium salt solution was purchased from Sigma (catalog No. 69244). 1M stock solution of Hepes was purchased from Sigma (catalog No. H9897). 1M stock solution of MgCl2 was purchased from Sigma (catalog No. M4880). CHAPS, 3% was purchased from Sigma (catalog No. C5070). Nonidet P40 was purchased from Sigma. KOH pellets were purchased from Sigma.
K-ras buffer containing 40 mM Hepes, 10 mM MgCl2, 0.05% CHAPS, 0.01% NP40 with a pH 7.5 was prepared as follows: to a Buffer base containing 4 ml 1M Hepes, 1 ml MgCl2,
93.3 ml d-H2O, pH 7.5 (with KOH pellets), 1.7 ml 3% CHAPS was added, followed by the addition of 1 ml 1% NP40.
Final Conditions of the method included 1 μM KRAS4B (wild type), 0.05 μM SOS1, 1.5 μM mant-GDP. Reagent Preparation included: thawing aliquots of KRAS, SOS, and mant-GDP; preparing 3x KRAS (3 uM) in assay buffer; preparing 3x SOS/mant-GDP (150 nM/4.5 uM) in assay buffer; and preparing 3x compounds in assay buffer.
Assay Procedure (1536) used 3.3 μl, 3x Kras, 3.3 μl 3x compound with preincubate 0 hour, and […] 3x SOS/mant-GDP. A kinetic read measuring fluorescence at 360_450 was performed for 30 min at 30 second intervals.
Reference compound SCH 54292 (reversible inhibitor) at about 100 μM was used with no preincubation. Reagents were only stable for 45 min on ice, and therefore were prepared fresh before each assay. Partial plates (up to 9 columns) were run at a time to minimize effects due to the amount of time it takes to read a whole plate. SOS/mant-GDP were added with an automated pipettor to initiate all reactions at the same time. Assay was typically performed at 0.5% solution in DMSO (compounds prepared in 1.5% DMSO initially).
Clariostar Settings were as follows. Test Name was Kras Kinetic 360-450. Basic settings of the test included Measurement type as Fluorescence (FI), and Microplate name as Corning 3820. Plate mode settings included 61 cycles, 30 second cycle time, and 10 flashes per well. Optic settings were as follows. Excitation wavelength was 360 nm. Emission wavelength was 450 nM. Excitation bandwidth was 12 nm. Emission bandwidth was 12 nm. Dichroic filter 405 was used. D6 Well(s) was used for gain adjustment. No shaking was used. General settings were as follows. Top optic was used. Settling time was 0.1 second. Reading direction was bidirectional, horizontal left to right, and bottom to top. The target temperature was 25° C.

Assay [2] deals with T1, Ras protein. As to the kind of experiment: Nucleotide exchange rate IC50 assay (SOS1, mant-GDP), Example 18. The format is biochemical.
Excerpt: as §1, with “The IC50” for “In some embodiments, the IC50”, “guanine nucleotide-exchange” for “guanine nucleotide-echange”, “Ras is” for “Ras was”, “nucleotide (mant-GDP).” for “nucleotide (mant-GDP (used in Icagene assay) or mant-GTP (used in other IC50 assays).”, “achieved.” for “achieved. In other embodiments, other Ras activator proteins may be used. Non-limiting examples of other Ras activator proteins include RasGRP (Ras guanyl-releasing protein).”

Another assay addresses GDP-loaded K-Ras (Homo sapiens, UniProt P01116). Kind of assay: Thermophoresis binding assay. The procedure:
The thermophoresis binding assay measures the changes in the movement of KRAS along a temperature gradient as a result of compound binding. In this assay, K-Ras is fluorescently labeled and the thermophoretic movement is measured by monitoring the fluorescence distribution inside a capillary. Compounds of varies concentrations were titrated and the fluorescence distribution signal was measured after 30 seconds or until the diffusion equilibrium is stable. The apparent binding affinity Kd is calculated by fitting the normalized fluorescence distribution values along the concentration axis.

Each structure is given as a SMILES string.

T1 sequence (P01116 1-188 isoform P01116-2): as above
GDP-loaded K-Ras, sequence (P01116 1-188 isoform P01116-2): as above

As to `Cc1cc(C)nc(SCc2cc(=O)n(-c3nc4ccccc4s3)[nH]2)n1` [Compound 184, 2-(benzo[d]thiazol-2-yl)-5-(((4,6-dimethylpyrimidin-2-yl)thio)methyl)-1,2-dihydro-3H-pyrazol-3-one], the IC50 on Ras protein [1] was determined as 5.8 µM; on KRAS4B (wild type) it was 13.6 µM.

With `O=c1cc(CSc2ccccn2)[nH]n1-c1nc2ccccc2s1` [Compound 185, 2-(benzo[d]thiazol-2-yl)-5-((pyridin-2-ylthio)methyl)-1,2-dihydro-3H-pyrazol-3-one], the figures for the IC50 against Ras protein [1] and on KRAS4B (wild type) were 5.9 µM and 340 µM, respectively.

`Cc1ccc(SCc2cc(=O)n(-c3nc4ccccc4[nH]3)[nH]2)cc1` [Compound 186, 2-(1H-benzo[d]imidazol-2-yl)-5-((p-tolylthio)methyl)-1,2-dihydro-3H-pyrazol-3-one]: the IC50 on Ras protein [1] was determined as 1.3 µM; against KRAS4B (wild type) it was 500 µM.

In the case of `Cc1nnc(SCc2cc(=O)n(-c3nc4ccccc4s3)[nH]2)s1` [Compound 187, 2-(benzo[d]thiazol-2-yl)-5-(((5-methyl-1,3,4-thiadiazol-2-yl)thio)methyl)-1,2-dihydro-3H-pyrazol-3-one], the IC50 is 21 µM against Ras protein [1] and 500 µM at KRAS4B (wild type).

Turning to `Cc1nnc(SCc2[nH]n(-c3nc4ccccc4[nH]3)c(=O)c2C)s1` [Compound 188, 2-(1H-benzo[d]imidazol-2-yl)-4-methyl-5-(((5-methyl-1,3,4-thiadiazol-2-yl)thio)methyl)-1,2-dihydro-3H-pyrazol-3-one], the IC50 against Ras protein [2] is roughly 0.8 µM. Besides, the Kd at GDP-loaded K-Ras worked out at 0.52 µM.

Take `COC(=O)c1ccc2[nH]c(-n3[nH]c(CSc4nnc(C)s4)c(C)c3=O)nc2c1` [Compound 189, methyl 2-(4-methyl-3-(((5-methyl-1,3,4-thiadiazol-2-yl)thio)methyl)-5-oxo-2,5-dihydro-1H-pyrazol-1-yl)-1H-benzo[d]imidazole-5-carboxylate]: on Ras protein [2], the IC50 is roughly 0.7 µM. This compound also had a Kd at GDP-loaded K-Ras of 0.413 µM.
